Data taken from patent publication US12448388B2, “PRMT5 inhibitors and uses thereof” (Gilead Sciences, Inc., priority 2023, dated 2025).
Read-outs that look alike come from different tables or passages of the source.

Test system: HCT116 MTAP-deleted cell lines
Experiment: Cell viability assay (CellTiter-Glo, 7 days), HCT116 MTAP-deleted
Assay type: cell-based
Conditions: Homo sapiens, HCT-116
Procedure, shortened: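 Each PRMT5 inhibitor was tested as a dose response alongside tool compounds on the same plate. Incubation ran 7 days at 37 °C under 5% CO2, after which CellTiter-Glo luminescence was recorded and CC50 calculated.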

[1] = cell viability, HCT116 MTAP-deleted, class symbols, read-out: CC50
[2] = cell viability assay, HCT116 MTAP-deleted, class symbols, read-out: CC50

Row | Structure (SMILES) | CC50 [1] [nM] | CC50 [2] [nM] | further results
1 | Cc1ncn2c1c(N)nc1cnc(C(=O)N3CCC[C@@H]4Oc5cc(C(F)(F)F)c(F)cc5[C@@H]43)cc12 [Ff-116, (4-amino-3-methylimidazo[1,5-a]pyrido[3,4-e]pyrazin-8-yl)((4aS,9bS)-8-fluoro-7-(trifluoromethyl)-3,4,4a,9b-tetrahydrobenzofuro[3,2-b]pyridin-1(2H)-yl)methanone] | < 100 |  | 
2 | C[C@H]1CN(C(=O)c2cc3c(cn2)nc(N)c2cncn23)[C@H]2c3cc(F)c(C(F)(F)F)cc3C[C@H]2O1 [Ff-247, (4-aminoimidazo[1,5-a]pyrido[3,4-e]pyrazin-8-yl)((2S,4aS,9aR)-6-fluoro-2-methyl-7-(trifluoromethyl)-2,3,9,9a-tetrahydroindeno[2,1-b][1,4]oxazin-4(4aH)-yl)methanone] | < 100 |  | 
3 | CN(C(=O)c1cc2c(cc1F)nc(N)c1cncn12)[C@@H]1COc2cc(C#CC(C)(C)F)ccc21 [Ff-447, 4-amino-7-fluoro-N-[(3S)-6-(3-fluoro-3-methyl-but-1-ynyl)-2,3-dihydrobenzofuran-3-yl]-N-methyl-imidazo[1,5-a]quinoxaline-8-carboxamide] |  | < 100 | 
4 | Nc1nc2cc(F)c(C(=O)N3CCC[C@@H]4Cc5cc(C(F)(F)F)ccc5[C@@H]43)cc2n2cncc12 (racemic) [Ff-310, Rac-(4-amino-7-fluoroimidazo[1,5-a]quinoxalin-8-yl)((4aR,9bR)-7-(trifluoromethyl)-2,3,4,4a,5,9b-hexahydro-1H-indeno[1,2-b]pyridin-1-yl)methanone] | < 100 |  | 
5 | Nc1nc2cc(F)c(C(=O)N3CC4(CCC3c3ccc(C(F)(F)F)cn3)CC4)cc2n2cncc12 (centres unmarked) [Ff-149, (4-amino-7-fluoroimidazo[1,5-a]quinoxalin-8-yl)(6-(5-(trifluoromethyl)pyridin-2-yl)-5-azaspiro[2.5]octan-5-yl)methanone] |  |  | CC50: < 100 nM
6 | CN(C(=O)c1cc2c(cc1C#N)nc(N)c1cncn12)[C@@H]1COc2cc(OC(F)(F)F)ccc21 [Ff-561, (S)-4-amino-7-cyano-N-methyl-N-(6-(trifluoromethoxy)-2,3-dihydrobenzofuran-3-yl)imidazo[1,5-a]quinoxaline-8-carboxamide] |  | < 100 | 
7 | CN(C(=O)c1cc2c(cc1F)nc(N)c1cncn12)[C@@H]1COc2cc(C3=CCOC3)ccc21 [Ff-483, (S)-4-amino-N-(6-(2,5-dihydrofuran-3-yl)-2,3-dihydrobenzofuran-3-yl)-7-fluoro-N-methylimidazo[1,5-a]quinoxaline-8-carboxamide] |  | < 100 | 
8 | CN(C(=O)c1cc2c(cc1F)nc(N)c1cncn12)[C@@H]1COc2cc(C#CC3(C)CC3)ccc21 [Ff-514, (S)-4-amino-7-fluoro-N-methyl-N-(6-((1-methylcyclopropyl)ethynyl)-2,3-dihydrobenzofuran-3-yl)imidazo[1,5-a]quinoxaline-8-carboxamide] |  | 100 to 1000 | 
9 | Nc1nc2cc(F)c(C(=O)N3CCC[C@H]4Oc5cc(OC(F)(F)F)c(F)cc5[C@H]43)cc2n2cncc12 (single isomer, unassigned) [Ff-397] |  | 100 to 1000 | 
10 | N#Cc1cc2nc(N)c3cncn3c2cc1C(=O)N1CCC[C@@H]2Oc3cc(OC(F)(F)F)ccc3[C@@H]21 [Ff-349, 4-amino-8-((4aS,9bS)-7-(trifluoromethoxy)-1,2,3,4,4a,9b-hexahydrobenzofuro[3,2-b]pyridine-1-carbonyl)imidazo[1,5-a]quinoxaline-7-carbonitrile] | < 100 |  | 
11 | Cc1ncc2c(N)nc3ccc(C(=O)N(C)Cc4cc5cc(C(F)(F)F)ccn5n4)cc3n12 [Ff-49, 4-amino-N,1-dimethyl-N-((5-(trifluoromethyl)pyrazolo[1,5-a]pyridin-2-yl)methyl)imidazo[1,5-a]quinoxaline-8-carboxamide] | > 1000 |  | 
12 | C[C@@H]1CC[C@@H]2Oc3cc(C(F)(F)F)ccc3[C@@H]2N1C(=O)c1cc2c(cn1)nc(N)c1cncn12 (racemic) [Ff-106, Rac-(4-aminoimidazo[1,5-a]pyrido[3,4-e]pyrazin-8-yl)((2R,4aS,9bS)-2-methyl-7-(trifluoromethyl)-3,4,4a,9b-tetrahydrobenzofuro[3,2-b]pyridin-1(2H)-yl)methanone] | < 100 |  | 
13 | Nc1nc2cc(F)c(C(=O)N(Cc3ccc(-n4ccnc4)cc3Cl)C34CC(C3)C4)cc2n2cncc12 [Ff-53, 4-amino-N-(bicyclo[1.1.1]pentan-1-yl)-N-(2-chloro-4-(1H-imidazol-1-yl)benzyl)-7-fluoroimidazo[1,5-a]quinoxaline-8-carboxamide] | < 100 |  | 
14 | Cc1ncc2c(N)nc3cc(F)c(C(=O)N4CC[C@H]5C[C@@H]4c4ccc(C(F)(F)F)nc4O5)cc3n12 [Ff-627, (4-amino-7-fluoro-1-methylimidazo[1,5-a]quinoxalin-8-yl)((2S,6R)-9-(trifluoromethyl)-3,4-dihydro-2H-2,6-methanopyrido[2,3-b][1,5]oxazocin-5(6H)-yl)methanone] |  | < 100 | 
15 | Nc1nc2cnc(C(=O)N3CC[C@H]4C[C@@H]3c3ccc(Cl)nc34)cc2n2cncc12 [Ff-602, (4-aminoimidazo[1,5-a]pyrido[3,4-e]pyrazin-8-yl)((5R,9S)-2-chloro-5,7,8,9-tetrahydro-6H-5,9-methanopyrido[3,2-c]azepin-6-yl)methanone] |  | 100 to 1000 | 
16 | C[C@H]1CCN(C(=O)c2cc3c(cc2F)nc(N)c2cncn23)[C@@H](c2ccc(C(F)(F)F)cc2)C1 (racemic) [Ff-241, Rac-(4-amino-7-fluoroimidazo[1,5-a]quinoxalin-8-yl)((2R,4S)-4-methyl-2-(4-(trifluoromethyl)phenyl)piperidin-1-yl)methanone] | 100 to 1000 |  | 
17 | Cc1ncn2c1c(N)nc1cnc(C(=O)N3CCC[C@@H]4Oc5cc(OC(F)(F)F)c(F)cc5[C@@H]43)cc12 [Fg-32, (4-amino-3-methylimidazo[1,5-a]pyrido[3,4-e]pyrazin-8-yl)((4aS,9bS)-8-fluoro-7-(trifluoromethoxy)-3,4,4a,9b-tetrahydrobenzofuro[3,2-b]pyridin-1(2H)-yl)methanone] |  | < 100 | 
18 | Nc1nc2cc(F)c(C(=O)N3CCC[C@@H]4OCc5cc(OC(F)F)ccc5[C@@H]43)cc2n2cncc12 (racemic) [Ff-287, Rac-(4-amino-7-fluoroimidazo[1,5-a]quinoxalin-8-yl)((4aS,10bS)-8-(difluoromethoxy)-2,3,4,4a,6,10b-hexahydro-1H-isochromeno[4,3-b]pyridin-1-yl)methanone] | < 100 |  | 
19 | Cc1ncn2c1c(N)nc1cnc(C(=O)N3CCC[C@@H]4Oc5cc(OC(F)(F)F)ccc5[C@@H]43)cc12 [Fg-30, (4-amino-3-methylimidazo[1,5-a]pyrido[3,4-e]pyrazin-8-yl)((4aS,9bS)-7-(trifluoromethoxy)-3,4,4a,9b-tetrahydrobenzofuro[3,2-b]pyridin-1(2H)-yl)methanone] |  | < 100 | 
20 | Nc1nc2cnc(C(=O)N3CCC[C@@H]4Oc5cc(Cl)ccc5[C@@H]43)cc2n2cncc12 [Fg-28, (4-aminoimidazo[1,5-a]pyrido[3,4-e]pyrazin-8-yl)((4aS,9bS)-7-chloro-3,4,4a,9b-tetrahydrobenzofuro[3,2-b]pyridin-1(2H)-yl)methanone] |  | < 100 | 
21 | Nc1nc2cc(F)c(C(=O)N(Cc3ccc(-c4cnn(C(F)F)c4)cc3F)C34CC(C3)C4)cc2n2cncc12 [Ff-205, 4-amino-N-(bicyclo[1.1.1]pentan-1-yl)-N-(4-(1-(difluoromethyl)-1H-pyrazol-4-yl)-2-fluorobenzyl)-7-fluoroimidazo[1,5-a]quinoxaline-8-carboxamide] | < 100 |  | 
22 | Cc1ncc2c(N)nc3cc(F)c(C(=O)N(C)[C@@H]4COc5cc(OC(F)(F)F)ccc54)cc3n12 [Ff-564, (S)-4-amino-7-fluoro-N,1-dimethyl-N-(6-(trifluoromethoxy)-2,3-dihydrobenzofuran-3-yl)imidazo[1,5-a]quinoxaline-8-carboxamide] |  | < 100 | 
23 | CC(C)N(Cc1ccc(-c2cnn(-c3ccccn3)c2)cc1F)C(=O)c1cc2c(cc1F)nc(N)c1cncn12 [Ff-147, 4-amino-7-fluoro-N-(2-fluoro-4-(1-(pyridin-2-yl)-1H-pyrazol-4-yl)benzyl)-N-isopropylimidazo[1,5-a]quinoxaline-8-carboxamide] | < 100 |  | 
24 | C[C@H]1CN(C(=O)c2cc3c(cc2F)nc(N)c2cncn23)[C@H]2c3ccc(OC(F)(F)F)cc3C[C@H]2O1 (single isomer, unassigned) [Ff-184] | < 100 |  | 
25 | CC(C)N(Cc1ccc(-c2cnn(C(F)(F)F)c2)cc1F)C(=O)c1ccc2nc(N)c3cncn3c2c1 [Ff-50, 4-amino-N-(2-fluoro-4-(1-(trifluoromethyl)-1H-pyrazol-4-yl)benzyl)-N-isopropylimidazo[1,5-a]quinoxaline-8-carboxamide] | < 100 |  | 
26 | C[C@H](c1ncccn1)N(Cc1ccc(C(F)(F)F)cc1F)C(=O)c1cc2c(cc1F)nc(N)c1cncn12 [Ff-416, 4-amino-7-fluoro-N-[[2-fluoro-4-(trifluoromethyl)phenyl]methyl]-N-[(1R)-1-pyrimidin-2-ylethyl]imidazo[1,5-a]quinoxaline-8-carboxamide] |  | < 100 | 
27 | Cc1ncn2c1c(N)nc1ccc(C(=O)N3CCC[C@@H]4Oc5cc(OC(F)(F)F)ccc5[C@@H]43)cc12 (single isomer, unassigned) [Ff-400] |  | < 100 | 
28 | Cc1ncc2c(N)nc3cc(F)c(C(=O)N(Cc4ccc(C(F)(F)F)cn4)C4(C)CC4)cc3n12 [Ff-589, 4-amino-7-fluoro-1-methyl-N-(1-methylcyclopropyl)-N-((5-(trifluoromethyl)pyridin-2-yl)methyl)imidazo[1,5-a]quinoxaline-8-carboxamide] |  | < 100 | 
29 | CCN(Cc1ccc(F)cc1Cl)C(=O)c1ccc2nc(N)c3cncn3c2c1 [Ff-71, 4-amino-N-(2-chloro-4-fluorobenzyl)-N-ethylimidazo[1,5-a]quinoxaline-8-carboxamide] | 100 to 1000 |  | 
